Entries after “also recorded” stand apart in the source; their conditions may differ.
Assays:
[1] = tested on: mutant HTT protein; test: Repeat oral dosing in BacHD mice: mutant HTT protein in tissues (Western blot); assay type: in vivo
Method: (§1) For the repeat dosing study, twenty-four BacHD mice (FVB/N-Tg(HTT*97Q)IXwy/J transgenic mice—Jackson Laboratories) were used for the experiment. Animal protocols were approved by the Children's Hospital of Philadelphia Institutional Animal Care and use Committee. Mice were housed in a temperature-controlled environment on a 12-h light/dark cycle. Food and water were provided ad libitum.
For the repeat dosing study, branaplam or vehicle was administered by oral gavage 3 times a week for 3 consecutive weeks. Mice were divided in 4 groups (n=6 mice/group) and treated with branaplam (12 mg/kg—1 group, or 24 mg/kg—2 groups), or vehicle (1 groups) as control. Mice were firmly restrained by grasping the loose skin to immobilize the head, maintained in a vertical position and a 22- to 26-gauge gavage needle was placed in the side of the mouth. The needle was guided following the roof of the mouth into the esophagus and allowed to gently enter in the stomach. The amount of branaplam or vehicle administrated to each mouse was based on the weight recorded the day of dosing.
At 24 h (vehicle and branaplam 12 mg/Kg & 24 mg/Kg), and 72 h (branaplam 24 mg/Kg) after the last treatment, blood, CSF, and tissue samples were obtained for PK and PD analysis. To collect CSF, mice were placed in a rodent anesthesia induction chamber where they are exposed to 4-5% isoflurane in 100% oxygen carrier gas. Once an appropriate plane of anesthesia was achieved, they were moved to a nose cone so that maintenance levels of isoflurane (1-3%) could be delivered throughout the procedure. The dorsal aspect of their cervical and occipital region was surgically prepped to visualize the dura mater under a microscope. A glass micropipette attached to a micromanipulator was introduced to the cisterna magna via a puncture through the dura mater at a point where no vasculature was visualized, and CSF was allowed to flow into the micropipette via capillary action. After approximately 15-30 minutes, the micropipette was removed from the cisterna magna, the CSF sample was transferred into Eppendorf tubes, flash frozen in liquid nitrogen, and stored at −80° C.
Following CSF collection, mice were kept under anesthesia with isoflurane. Blood was obtained via submandibular vein bleeds and collected for RNA extraction (PD analysis) using RNAprotect Animal Blood Tubes, and plasma (PK analysis) using K2EDTA coated tubes. […]
Snap-frozen mouse tissue samples were homogenized in RIPA buffer with protease and phosphatase inhibitor (Thermo Scientific) by Precellys at 6000 rpm for 40 sec. […] Total protein concentration was quantified using the BCA protein Assay (Thermo Scientific). […] Protein bands were quantified by Image J.

[2] = tested on: HTT transcript; test: Single oral dose in BacHD mice: HTT transcripts in brain and blood (qPCR); assay type: in vivo
Method: as §1, with “Twenty-eight” for “For the repeat dosing study, twenty-four”, “(FVB/N-Tg(HTT*97Q)|Xwy/J” for “(FVB/N-Tg(HTT*97Q)IXwy/J”
A single dose of branaplam or vehicle solution was administered by oral gavage. Mice were divided in seven groups (n=4 mice/group) and treated with branaplam (10 mg/kg—2 groups) and 50 mg/kg—3 groups), or vehicle (2 groups) as control. Mice were firmly restrained by grasping the loose skin to immobilize the head, maintained in a vertical position and a 22- to 26-gauge gavage needle was placed in the side of the mouth. The needle was guided following the roof of the mouth into the esophagus and allowed to gently enter in the stomach. The amount of branaplam or vehicle administrated to each mouse was based on the weight recorded before treatment.
At 8 h, 24 h (vehicle and branaplam 10 mg/kg & 50 mg/kg), and 48 h (branaplam 50 mg/kg) after oral gavage, blood and tissue samples were obtained for PK and PD analysis. Mice were anesthetized with isoflurane and blood was obtained via submandibular vein bleeds and collected for RNA extraction (PD analysis) using RNAprotect Animal Blood Tubes, and plasma (PK analysis) using K2EDTA coated tubes. Cells were removed from plasma by centrifugation for 10 min at 2000×g at 4° C., and plasma samples were stored at −80° C. Following blood collection, mice were anesthetized with a lethal dose of ketamine/xylazine ([…] of a 10 mg:1 mg), and perfused with 18 ml of 0.9% cold saline mixed with 2 ml of RNAlater (Ambion) solution for tissue collection. Liver, skeletal muscle, cerebrum, and cerebellum samples were flash frozen in liquid nitrogen and stored at −80° C.
In experiments, as herein described, the branaplam dose is provided as a solution of branaplam monohydrochloride salt (10 mg/mL suspension) in methyl cellulose, medium viscosity 400 cP for a 1% solution), Tween 80 (1% v/v), purified water suspension formulation.
Total RNA from cerebrum and cerebellum was extracted using RNeasy Plus kit (Qiagen) after homogenized in Precellys at 6000 rpm for 40 sec. RNA from blood was extracted using PAXgene blood RNA kit (Qiagen) according to manufacturer protocol. The RNA was quantified by Nanodrop 2000 (Thermo Scientific). cDNAs were synthesized from 140-400 ng RNA using Maxima First strand cDNA synthesis kit using a mix of oligo dT and random hexamers (Thermo Scientific) in 20 uL reaction at 25° C. for 10 min, 50° C. for 15 min then 85° C. for 5 min. Quantitative PCR was performed using Taqman Fast Advanced master mix (Thermo Scientific) in 20 uL with 4 uL of cDNA reaction and primers specific for each genes. The PCR steps were as follows: 95° C. for 20 sec then 40 cycles of 95° C. for 1 sec, 55° C. for 20 sec. […] Relative quantification of gene expression was performed using 2^−ΔΔCT method. Fold changes in the mRNA expression level was calculated following normalization to mouse glucuronidase beta (Gusb) as an endogenous reference.

[3] = 12 or 24 mg/kg oral, thrice weekly for three weeks, 24 h post-dosing, listed as branaplam
[4] = single oral dose 10 or 50 mg/kg, listed as branaplam

CC1(C)CC(Oc2ccc(-c3ccc(-c4cn[nH]c4)cc3O)nn2)CC(C)(C)N1 [Compound 18, 5-(1H-pyrazol-4-yl)-2-(6-((2,2,6,6-tetramethylpiperidin-4-yl)oxy)pyridazin-3-yl)phenol]
mutant HTT protein, 72 h relative to 24 h ([1]; 24 mg/kg cohort, takedown 72 h post-dose): trend towards further lowering | mutant HTT protein in the cortex [1, 3]: dose dependent, significant lowering; also recorded: lowers | mutant HTT protein in the striatum [1, 3]: dose dependent, significant lowering; also recorded: lowers | mHTT protein in the liver ([1]; 12 or 24 mg/kg oral, thrice weekly for three weeks, listed as branaplam): robust lowering; also recorded: lowers | novel-exon-containing HTT transcript levels in brain ([2]; single oral dose 50 mg/kg, 48 h after dosing): trend towards return to vehicle levels | novel-exon-containing HTT transcript levels in brain ([2]; single oral dose 10 or 50 mg/kg, 8 and 24 h after dosing, listed as branaplam): elevates; also recorded: dose dependent increase | total HTT transcript levels in brain ([2]; single oral dose 10 or 50 mg/kg, 8 h and 24 h, listed as branaplam): lowers; also recorded: lowering trend at 8 h; also recorded: greater degree of lowering at the 50 mg/kg level, 24 hours post-dosing | novel-exon-containing HTT transcript levels in blood [2, 4]: elevates; also recorded: robust modulation | total HTT transcript levels in blood [2, 4]: lowers; also recorded: lowering

From patent publication US20240216369A1, “THE USE OF A SPLICING MODULATOR FOR A TREATMENT SLOWING PROGRESSION OF HUNTINGTON'S DISEASE” (Novartis AG, priority 2019, published 2024)
